Measured values: patent publication US20100316529A1, “Anti-Microbial Systems and Methods” (priority 2001, published 2010)
Where “and” joins values, the source holds several entries; their conditions need not be identical. Identical values can stand only once.

Legend:
Assay type in all cases: cell-based
Kleb. oxytoca = assay: EDTA salt dilution test, MIC/MBC
Ent. cloacae = assay: EDTA salt dilution test, MIC/MBC; details: three entries
Proteus vulgaris = assay: EDTA salt dilution test, MIC/MBC
Acinetobacter baumanii = assay: EDTA salt dilution test, MIC/MBC; details: two entries, Exhibit A2
Ent. faecalis = assay: EDTA salt dilution test, MIC/MBC
Experimental: (§1) Protocol one: Broth dilutions:
(§2) Inoculate a 25 ml nutrient broth (Oxoid No2) in a sterile universal container with one of the following organisms; Pseudomonas aeruginosa, Proteus Mirabilis, E. coli, Klebsiella pneumoniae, Staph aureus, Coagulase negative staphylococci, Enterococcus faecalis or MRSA.
(§3) Incubate the broth at 37° C. overnight.
(§4) To make these concentrations put the EDTA needed for 10 mLs in only 9 mLs of broth in sterile universal containers, as this will be diluted further when the organisms are added.
(§5) Dilute the overnight broth cultures to 10^7 organisms/mL using more sterile nutrient broth.
(§6) Add 1 mL of this diluent to each of the EDTA series broths. This gives a final concentration of 10^6 organism/mL in the EDTA broths.
(§7) Incubate for 18 hours at 37° C.
(§8) Next day visually read the MIC's by observing the turbidity of the broths.
(§9) Plate out 1 uL of each dilution onto fresh blood agar plate and spread using a sterile plastic spreader.
(§10) Incubate overnight at 37° C.
(§11) Next day read the MBC's by performing colony counts.

Proteus mirabilis = assay: EDTA salt dilution test, MIC/MBC; details: two entries
Experimental: as §1, §2, §3, §4, §5, §6, §7, §8, §9, §10, §11

S. aureus = assay: EDTA salt dilution test, MIC/MBC; details: five entries
Experimental: as §1, §2, §3, §4, §5, §6, §7, §8, §9, §10, §11

S. lentus = assay: EDTA salt dilution test, MIC/MBC
Experimental: as §1, §2, §3, §4, §5, §6, §7, §8, §9, §10, §11

S. capitis = assay: EDTA salt dilution test, MIC/MBC; details: two entries
Experimental: as §1, §2, §3, §4, §5, §6, §7, §8, §9, §10, §11

S. xylosus = assay: EDTA salt dilution test, MIC/MBC
Experimental: as §1, §2, §3, §4, §5, §6, §7, §8, §9, §10, §11

E. coli = assay: EDTA salt dilution test, MIC/MBC; details: three entries
Experimental: as §1, §2, §3, §4, §5, §6, §7, §8, §9, §10, §11

S. simulans = assay: EDTA salt dilution test, MIC/MBC
Experimental: as §1, §2, §3, §4, §5, §6, §7, §8, §9, §10, §11

Kleb. pnemoniae = assay: EDTA salt dilution test, MIC/MBC; details: two entries
Experimental: as §1, §2, §3, §4, §5, §6, §7, §8, §9, §10, §11

Pseudomonas sp. = assay: EDTA salt dilution test, MIC/MBC
Experimental: as §1, §2, §3, §4, §5, §6, §7, §8, §9, §10, §11

Pseudomonas aeruginosa = assay: EDTA salt dilution test, MIC/MBC; details: two entries
Experimental: as §1, §2, §3, §4, §5, §6, §7, §8, §9, §10, §11

VRE = assay: EDTA salt dilution test, MIC/MBC; details: two entries
Experimental: as §1, §2, §3, §4, §5, §6, §7, §8, §9, §10, §11

S. epidermidis = assay: EDTA salt dilution test, MIC/MBC; details: two entries
Experimental: as §1, §2, §3, §4, §5, §6, §7, §8, §9, §10, §11

MRSA = assay: EDTA salt dilution test, MIC/MBC; details: five entries
Experimental: as §1, §2, §3, §4, §5, §6, §7, §8, §9, §10, §11

Steno. maltophilia = assay: EDTA salt dilution test, MIC/MBC
Kleb. ornitholytica = assay: EDTA salt dilution test, MIC/MBC
Coryneform strait/amy = assay: EDTA salt dilution test, MIC/MBC
Cornyeform amycolatum = assay: EDTA salt dilution test, MIC/MBC
C. albicans = assay: EDTA agar dilution method, yeasts, MIC/MBC; details: three entries, Exhibit C
Experimental: (§12) The bactericidal effects were measured as the Minimum Bactericidal Concentration (MBC), while the inhibitory effects were measured as the Minimum Inhibitory Concentration (MIC). In each case, the concentration was measured as milligrams of the disinfectant salt per milliliter of water (mg/ml).
(§13) Protocol 3: Agar dilutions.
(§14) Prepare nutrient agar plates with increasing concentrations of EDTA, 0, 0.5, 1, 1.5, 2, 4, 6, 8, 10, 15, 20, 25, 30 mg/mL, using the following method. • Pour 300 mL distilled water into a sterile glass bottle. • Add the appropriate amount of EDTA. This is the concentration desired ×300, in grams. • Once the EDTA has fully dissolved, add 8.4 g of Nutrient agar powder (Oxoid). Mix thoroughly. • Do this for each concentration of EDTA required. […] Do this until all the media is used up. Label the plates with the concentration of EDTA they contain. • These plates can then be stored, until they are needed, in a 4° C. fridge. • Use an automatic plate inoculator to inoculate each plate with 21 organisms.

C. glabrata = assay: EDTA agar dilution method, yeasts, MIC/MBC; details: two entries, Exhibit C
Experimental: as §12, §13, §14

C. guilliermondii = assay: EDTA agar dilution method, yeasts, MIC/MBC; details: Exhibit C
Experimental: as §12, §13, §14

C. tropicalis = assay: EDTA agar dilution method, yeasts, MIC/MBC; details: Exhibit C
Experimental: as §12, §13, §14

C. parapsilosis = assay: EDTA agar dilution method, yeasts, MIC/MBC; details: Exhibit C
Experimental: as §12, §13, §14

Ent. faeculm = assay: EDTA salt dilution test, MIC/MBC
C. lucitaniae = assay: EDTA agar dilution method, yeasts, MIC/MBC; details: Exhibit C
Excerpt: as §13
Do this until all the media is used up.

variety of microbes = assay: Efficacy of disinfectant salts of EDTA against a number of microbes; details: general statement
Experimental: The Applicant has tested the efficacy of a number of disinfectant salts of EDTA against a number of microbes.
as §1, §2, §3
Next day make up a series of nutrient broths containing a dilution of the appropriate EDTA as in the following list; 0 mg/mL, 0.25 mg/mL, 0.5 mg/mL, 1.0 mg/mL, 1.5 mg/mL, 2.0 mg/mL, 4.0 mg/mL, 6.0 mg/mL, 8.0 mg/mL, 10 mg/mL, 15 mg/mL, 20 mg/mL, 25 mg/mL, 30 mg/ml, 40 mg/mL, 50 mg/mL, 60 mg/mL, 70 mg/mL, 80 mg/mL, 90 mg/mL, 100 mg/mL.
as §4, §5, §6, §7
Next day visually read the MIC's by observing the turbidity of the broths. […]
as §11

## O=C([O-])CN(CCN(CC(=O)O)CC(=O)O)CC(=O)[O-].[K+].[K+] [Dipotassium EDTA]
Kleb. oxytoca; Exhibit A1
  MBC, minimum concentration required to kill an entire population: 15000 µg/mL
Kleb. oxytoca; Exhibit A2
  MIC, minimum concentration required to inhibit growth: 1000 µg/mL
Ent. cloacae; Exhibit A1
  MBC, minimum concentration required to kill an entire population: 15000 µg/mL and >15000 µg/mL
Ent. cloacae; Exhibit A2
  MIC, minimum concentration required to inhibit growth: 4000 µg/mL and 6000 µg/mL
Proteus vulgaris; Exhibit A1
  MBC, minimum concentration required to kill an entire population: >15000 µg/mL
Proteus vulgaris; Exhibit A2
  MIC, minimum concentration required to inhibit growth: 1000 µg/mL
Acinetobacter baumanii
  MIC, minimum concentration required to inhibit growth: <500 µg/mL
Ent. faecalis; Exhibit A1
  MBC, minimum concentration required to kill an entire population: 15000 µg/mL
Ent. faecalis; Exhibit A2
  MIC, minimum concentration required to inhibit growth: 1000 µg/mL
Proteus mirabilis; Exhibit A1
  MBC, minimum concentration required to kill an entire population: >15000 µg/mL and 15000 µg/mL
Proteus mirabilis; Exhibit A2
  MIC, minimum concentration required to inhibit growth: <500 µg/mL
S. aureus; Exhibit A1
  MBC, minimum concentration required to kill an entire population: 6000 µg/mL and 8000 µg/mL
S. aureus; Exhibit A2
  MIC, minimum concentration required to inhibit growth: 1000 µg/mL
S. lentus; Exhibit A1
  MBC, minimum concentration required to kill an entire population: 10000 µg/mL
S. lentus; Exhibit A2
  MIC, minimum concentration required to inhibit growth: <500 µg/mL
S. capitis; Exhibit A1
  MBC, minimum concentration required to kill an entire population: 8000 µg/mL and 10000 µg/mL
S. capitis; Exhibit A2
  MIC, minimum concentration required to inhibit growth: <500 µg/mL
S. xylosus; Exhibit A1
  MBC, minimum concentration required to kill an entire population: 6000 µg/mL
S. xylosus; Exhibit A2
  MIC, minimum concentration required to inhibit growth: <500 µg/mL
E. coli; Exhibit A1
  MBC, minimum concentration required to kill an entire population: >15000 µg/mL and 15000 µg/mL
E. coli; Exhibit A2
  MIC, minimum concentration required to inhibit growth: 1000 µg/mL
S. simulans; Exhibit A1
  MBC, minimum concentration required to kill an entire population: 8000 µg/mL
S. simulans; Exhibit A2
  MIC, minimum concentration required to inhibit growth: <500 µg/mL
Kleb. pnemoniae; Exhibit A1
  MBC, minimum concentration required to kill an entire population: 15000 µg/mL
Kleb. pnemoniae; Exhibit A2
  MIC, minimum concentration required to inhibit growth: 1500 µg/mL and 1000 µg/mL
Pseudomonas sp.; Exhibit A1
  MBC, minimum concentration required to kill an entire population: 15000 µg/mL
Pseudomonas sp.; Exhibit A2
  MIC, minimum concentration required to inhibit growth: 1000 µg/mL
Pseudomonas aeruginosa; Exhibit A1
  MBC, minimum concentration required to kill an entire population: >15000 µg/mL
Pseudomonas aeruginosa; Exhibit A2
  MIC, minimum concentration required to inhibit growth: 1000 µg/mL
VRE; Exhibit A1
  MBC, minimum concentration required to kill an entire population: 8000 µg/mL
VRE; Exhibit A2
  MIC, minimum concentration required to inhibit growth: <500 µg/mL and 1000 µg/mL
S. epidermidis; Exhibit A1
  MBC, minimum concentration required to kill an entire population: 8000 µg/mL
S. epidermidis; Exhibit A2
  MIC, minimum concentration required to inhibit growth: <500 µg/mL
MRSA; Exhibit A1
  MBC, minimum concentration required to kill an entire population: 6000 µg/mL and 10000 µg/mL and 8000 µg/mL
MRSA; Exhibit A2
  MIC, minimum concentration required to inhibit growth: 1000 µg/mL
Steno. maltophilia; Exhibit A1
  MBC, minimum concentration required to kill an entire population: 10000 µg/mL
Steno. maltophilia; Exhibit A2
  MIC, minimum concentration required to inhibit growth: <500 µg/mL
Kleb. ornitholytica; Exhibit A1
  MBC, minimum concentration required to kill an entire population: >15000 µg/mL
Kleb. ornitholytica; Exhibit A2
  MIC, minimum concentration required to inhibit growth: 1000 µg/mL
Coryneform strait/amy; Exhibit A1
  MBC, minimum concentration required to kill an entire population: <500 µg/mL
Coryneform strait/amy; Exhibit A2
  MIC, minimum concentration required to inhibit growth: <500 µg/mL
Cornyeform amycolatum; Exhibit A1
  MBC, minimum concentration required to kill an entire population: <500 µg/mL
Cornyeform amycolatum; Exhibit A2
  MIC, minimum concentration required to inhibit growth: <500 µg/mL
C. albicans
  MIC's, Minimum Inhibitory Concentration: 500 µg/mL
C. glabrata
  MIC's, Minimum Inhibitory Concentration: 500 µg/mL
C. guilliermondii
  MIC's, Minimum Inhibitory Concentration: 500 µg/mL
C. tropicalis
  MIC's, Minimum Inhibitory Concentration: 1000 µg/mL
C. parapsilosis
  MIC's, Minimum Inhibitory Concentration: 500 µg/mL
Ent. faeculm; Ent. faecuim, Exhibit A2
  MIC, minimum concentration required to inhibit growth: <500 µg/mL
Ent. faeculm; Ent. faeculm, Exhibit A1
  MBC, minimum concentration required to kill an entire population: 8000 µg/mL
C. lucitaniae
  MIC's, Minimum Inhibitory Concentration: 500 µg/mL
Variety of microbes
  anti-microbial (antifungal and antibacterial) properties compared with the disodium salt: superior to disodium EDTA
